Entries after “also recorded” stand apart in the source; their conditions may differ.
Tests used:
mouse splenocytes = assay: LPS-induced differentiation of mouse splenocytes into plasma cells (flow cytometry, IgM ELISA); assay type: cell-based; settings: 1 μg/mL LPS, three days, 20 μM-1.25 μM
Method: Therefore, we sought to compare the sensitivity of this process to both KIRAs and PAIRs. To this end, we assessed how KIRA8, KIRA9, and PAIR1 affected the differentiation of lipopolysaccharide (LPS)-treated mouse splenocytes into antibody-secreting plasma cells. Total live number of CD19+ B-cells were assessed and plasma cells were quantified on the basis of B220 downregulation and CD138 expression by flow cytometry (FIGS. 6A-6C, FIG. 24). Concomitantly, secreted IgM was measured in the cell culture supernatants by ELISA (FIG. 6C).
Splenocyte Isolation and Differentiation
Red blood cells were lysed with ammonium chloride potassium buffer. Splenocytes were plated at 2.5×10^5 cells/well in a 96-well round bottom plate in complete media. The splenocytes were treated with or without 1 μg/ml LPS 026:b6 (Sigma). […] The splenocytes were incubated for three days in a 37° C., 5% CO2 humidified chamber before collection and staining for flow cytometry.
Cells from the plasma cell assay were collected in a 96-well plate and washed with PBS followed by staining with LIVE/DEAD Fixable Near-IR Dead Cell Stain kit (Invitrogen). Reagent was reconstituted as per manufacturer's instructions, diluted 1:1000 in PBS, and cells were stained in 100 μL on ice for 20 minutes. The cells were then washed with FACS buffer, PBS (Corning), 2 mM EDTA and 2% heat inactivated fetal bovine serum (Omega Scientific). The cells were then stained with 50 μL antibody cocktail consisting of anti-CD19 (BioLegend), anti-CD45R (BD Pharmingen), and anti-CD138 (BioLegend) in FACS buffer on ice for 15 minutes. Cells were resuspended in FACS buffer and combined with an equal volume of 4% paraformaldehyde with 5000 Countbright Absolute Counting Beads (Thermofisher). Stained cells were analyzed on a Fortessa (Becton Dickinson). Data analysis was performed using FlowJo (v10) software (Treestar Inc.).
Media supernatants from the in vitro plasma cell differentiation assay were measured for secreted IgM by ELISA. […] Wash buffer (PBS with 0.05% Tween-20 (v/v)) was used for all washing steps and blocked with PBS-BB (PBS without Ca^2+/Mg^2+, 1% BSA (w/v), 0.05% Tween-20 (v/v)). Supernatants from LPS stimulated samples were diluted (1:100) and media only samples were diluted (1:10) in PBS-BB. […] ELISA plates were developed with TMB (Sigma) and stopped with 1N sulfuric acid. Absorbance was measured at 450 nm using spectrophotometer (Spectramax M5, Molecular Devices). Sample IgM concentration values were calculated with SoftMaxPro software.

IRE1α* [1] = target: T1, IRE1α* (Homo sapiens, UniProt O75460); assay: In vitro Kdimer assay (dimerization affinity from RNase activity); assay type: biochemical; settings: 50 μM inhibitor
T1 construct: human IRE1α (residues 547-977, IRE1α*) was expressed in SF9 insect cells; His6 (N); made in house; host or cells: Sf9 insect cells (Bac-to-Bac baculovirus)
T1 sequence (O75460 547-977): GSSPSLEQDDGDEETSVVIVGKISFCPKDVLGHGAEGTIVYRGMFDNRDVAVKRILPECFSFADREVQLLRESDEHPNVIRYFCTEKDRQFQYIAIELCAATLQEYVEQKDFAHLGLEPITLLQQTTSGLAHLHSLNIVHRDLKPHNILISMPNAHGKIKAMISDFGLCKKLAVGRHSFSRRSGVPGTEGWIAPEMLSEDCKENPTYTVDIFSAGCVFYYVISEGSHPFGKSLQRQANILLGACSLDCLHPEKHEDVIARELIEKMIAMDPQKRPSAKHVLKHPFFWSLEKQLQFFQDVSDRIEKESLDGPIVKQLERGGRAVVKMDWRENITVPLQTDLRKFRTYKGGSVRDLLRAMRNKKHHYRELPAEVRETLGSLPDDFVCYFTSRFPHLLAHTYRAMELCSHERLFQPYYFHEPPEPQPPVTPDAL
Description: In order to better understand how to achieve an optimal intermediate RNase activation state through engagement of IRE1α's kinase domain, we first established a quantitative in vitro framework for characterizing how ATP-binding site occupancy influences RNase activity. […] This dimeric state-commonly referred to as the “back-to-back” dimer—is characterized by an extensive interface between the kinase and RNase domains of each IRE1α protomer; this dimeric state can be promoted through mass action as IRE1α concentration is raised. […] Furthermore, ligands that occupy the ATP-binding site of the kinase domain can also stimulate IRE1α's RNase activity by promoting dimer formation. We measured the ability of a purified, recombinant kinase/RNase domain construct of IRE1α—called IRE1α*—to cleave a FRET-quenched XBP1 RNA mini-substrate as a function of IRE1α* concentration, in order to provide a quantitative metric of IRE1α's dimer affinity (Kdimer) (FIG. 1B).
IRE1α* or dPIRE1α* was titrated from either 2 μM or 4 μM in two-fold serial dilutions in assay buffer (20 mM Tris, 50 mM sodium chloride, 1 mM MgCl2, 2 mM DTT, 0.05% Triton X-100 (v/v), pH 7.5) and incubated with 50 μM inhibitor for 30 minutes at room temperature. Assays were initiated by adding 10 μL of XBP1-mini substrate (5′-Alex647-CAUGUCCGCAGCGCAUG-IowaBlack-FQ-3′ (SEQ ID NO:1); IDT) to the wells at a final concentration of 6 μM and a final well volume of 30 μL. Fluorescence was detected on a Perkin Elmer Envision Microplate Reader at excitation and emission wavelengths of 650 nm and 665 nm. Reaction process was monitored real time in 10-second intervals for at least 30 minutes. Initial rates of XBP1-cleavage were determined for each respective IRE1α* of dpIRE1α* concentration. Specific activity was then determined by dividing rate (RFU/s) by the respective IRE1α* of dpIRE1α* used (RFU/s*[IRE1α]). Kdimer values were determined by fitting these values using the non-linear regression ‘one-site total’ binding parameter in GraphPad Prism analysis software.

XBP1 mRNA splicing [2] = assay: XBP1 splicing in ER-stressed INS-1 cells; assay type: cell-based, rat; settings: brefeldin A (BFA) or thapsigargin (Tg)
Method: (§1) RNA Isolation, Quantitative Real-Time PCR, and Primers
INS-1 or isogenic IRE1α-overexpressing INS-1 cells were plated onto Poly-D-Lysine coated tissue culture plate and grown for 48 hrs. Inhibitors or DMSO were added to the media and incubated for 1 hour at 37° C. with 5% CO2 prior to addition of ER stress agents or Dox as indicated. RNA was isolated from whole cells using either QIAGEN RNeasy Mini kits or Trizol (Invitrogen) and reverse transcribed as above to obtain total cDNA. Then, XBP-1 primers were used to amplify an XBP-1 amplicon spanning the 26 nt intron from the cDNA samples in a regular 3-step PCR. Thermal cycles were: 5 min at 95° C., 30 cycles of 30 s at 95° C., 30 s at 60° C., and 1 min at 72° C., followed by 72° C. for 15 min, and hold at 4° C. Primers used for XBP-1 mRNA splicing were as follows: sense primer XBP1.3 S (5′ […]-3′ (SEQ ID NO:2)) and antisense primer XBP1.2AS (5′-[…]-3′ (SEQ ID NO:3)). PCR fragments were then digested by PstI, resolved on 3% agarose gels, stained with EtBr and quantified by densitometry using ImageJ (NIH). For standard mRNA detection, generally […] total RNA was reverse transcribed using the QuantiTect Reverse Transcription Kit (QIAGEN). For qPCR, we used SYBR green (QIAGEN) and StepOnePlus Real-Time PCR System (Applied Biosystems). Thermal cycles were: 5 min at 95° C., 40 cycles of 15 sec at 95° C., 30 sec at 60° C. […]

IRE1α* [3] = target: T1, IRE1α*; assay: In vitro kinase activity assay (IRE1α kinase inhibition); assay type: biochemical; settings: IRE1α kinase inhibition; read-out: IC50 IRE1a
Method: A construct containing the cytosolic kinase and RNase domains of human IRE1α (residues 547-977, IRE1α*) was expressed in SF9 insect cells by using the Bac-to-Bac baculovirus expression system (Invitrogen) with a His6 tag at the N-terminus and purified with a nickel-nitriloacetic acid (Qiagen) column. To generate dP-IRE1α*, we removed basal phosphorylation sites by incubating IRE1α* with λ-PPase (New England Biolabs) at a molar ratio of 5:1 (IRE1α*: λ-PPase) in 50 mM HEPES pH 7.5, 100 mM NaCl, 1 mM MnCl2, 2 mM dithiothreitol (DTT) and 0.01% Brij 35 detergent (v/v) overnight at 4° C. Dephosphorylation was verified through western blotting using a universal phospho-protein detection agent (biotin-pIMAGO (Tymora Analytical Operations, Cat. No.: FL800) and imaged using a streptavidin-linked fluorophore.
In Vitro Kinase Activity Assay
Inhibitors (initial concentration of 10 or 60 μM, three-fold serial dilutions) were incubated with IRE1α* in cleavage buffer (20 mM HEPES, 0.05% Triton X-100 (v/v), 50 mM KCl, 1 mM MgCl2, 1 mM DTT, pH 7.5) for 30 min, followed by incubation with 10 μCi [γ^32P] ATP (3,000 Ci mmol^−1, PerkinElmer) at 23° C. for 3 hours. Samples were then spotted onto glass fiber paper (Easytab-C Glass Fiber Filter Paper, Perkin Elmer) and washed in twice with 0.5% phosphoric acid and autoradiographed using a GE Typhoon FLA 9000 Imager. Blots were quantitated using ImageQuant software. The percent inhibition was quantified by setting the background (no kinase well) as 0 and standardizing to IRE1α* without compound treatment (IRE1α*+DMSO). Dose-response curves were fit using “one-site fit log IC50” parameter using GraphPad Prism analysis software.
Compound Characterization (IC50 IRE1α Kinase Inhibition)

[4] = tested on: RIDD (IRE1α-dependent mRNA decay); assay: Real-time PCR of RIDD mRNA targets in INS-1 cells overexpressing IRE1α (Dox); assay type: cell-based, rat; settings: 3, 10 μM for 1 hour, then Dox (5 ng/mL) for 24 hours
Method: as §1
(§2) INS-1 or isogenic IRE1α-overexpressing INS-1 cells were plated onto Poly-D-Lysine coated tissue culture plate and grown for 48 hrs. Inhibitors or DMSO were added to the media and incubated for 1 hour at 37° C. with 5% CO2 prior to addition of ER stress agents or Dox as indicated. RNA was isolated from whole cells using either QIAGEN RNeasy Mini kits or Trizol (Invitrogen) and reverse transcribed as above to obtain total cDNA. Then, XBP-1 primers were used to amplify an XBP-1 amplicon spanning the 26 nt intron from the cDNA samples in a regular 3-step PCR. Thermal cycles were: 5 min at 95° C., 30 cycles of 30 s at 95° C., 30 s at 60° C., and 1 min at 72° C., followed by 72° C. for 15 min, and hold at 4° C. Primers used for XBP-1 mRNA splicing were as follows: sense primer XBP1.3 S (5′ […]-3′ (SEQ ID NO:2)) and antisense primer XBP1.2AS (5′-[…]-3′ (SEQ ID NO:3)). PCR fragments were then digested by PstI, resolved on 3% agarose gels, stained with EtBr and quantified by densitometry using ImageJ (NIH). For standard mRNA detection, generally […] total RNA was reverse transcribed using the QuantiTect Reverse Transcription Kit (QIAGEN). For qPCR, we used SYBR green (QIAGEN) and StepOnePlus Real-Time PCR System (Applied Biosystems). Thermal cycles were: 5 min at 95° C., 40 cycles of 15 sec at 95° C., 30 sec at 60° C. Gene expression levels were normalized to Beta Actin. Primers used for qPCR of RIDD targets were as follows: Beta Actin Fwd: 5′-[…]-3′ (SEQ ID NO:4), Beta Actin Rev: 5′-[…]-3′ (SEQ ID NO:5), Insulin 1 Fwd: 5′-GTCCTCTGGGAGCCCAAG-3′ (SEQ ID NO:6), Insulin 1 Rev: 5′-ACAGAGCCTCCACCAGG-3′ (SEQ ID NO:7), Insulin 2 Fwd: 5′-ATCCTCTGGGAGCCCCGC-3′ (SEQ ID NO:8), Insulin 2 Rev: 5′-AGAGAGCTTCCACCAAG-3′ (SEQ ID NO:9), Blos1 Fwd: 5′-[…]-3′ (SEQ ID NO:10), and Blos1 Rev: 5′-[…]-3′ (SEQ ID NO:11).
Real-Time PCR (Q-PCR) used SYBR green and Step OnePlus Real-Time PCR System (Applied Biosystems). Thermal cycles were: 5 min at 95° C., 40 cycles of 15 s at 95° C., 30 s at 60° C. Gene expression levels were normalized to GAPDH. Q-PCR Sense/antisense primers used: Rat GAPDH, 5′-[…]-3′ (SEQ ID NO:14) and 5′-[…]-3′ (SEQ ID NO:15); Rat Ins1, 5′-GTCCTCTGGGAGCCCAAG-3′ (SEQ ID NO:6) and 5′-ACAGAGCCTCCACCAGG-3′ (SEQ ID NO:7); Rat Pdia4, 5′-CGTCTCGCCCTGATTCGT-3′ (SEQ ID NO:16) and 5′-[…]-3′ (SEQ ID NO:17); Rat Blos1, 5′-[…]-3′ (SEQ ID NO:18) and 5′-TGTCCAGTTCGATGCTCCG-3′ (SEQ ID NO:19).
Real-time PCR for FIGS. 34A-34F: Real-Time PCR (Q-PCR) used SYBR green and Step OnePlus Real-Time PCR System (Applied Biosystems). Thermal cycles were: 5 min at 95° C., 40 cycles of 15 s at 95° C., 30 s at 60° C. Gene expression levels were normalized to GAPDH. Q-PCR Sense/antisense primers used: Rat GAPDH, 5′-[…]-3′ (SEQ ID NO:20) and 5′-[…]-3′ (SEQ ID NO:21); Rat Ins1, 5′-GTCCTCTGGGAGCCCAAG-3′ (SEQ ID NO:6) and 5′-ACAGAGCCTCCACCAGG-3′ (SEQ ID NO:7); Rat Ins2, 5′-ATCCTCTGGGAGCCCCGC-3′ (SEQ ID NO:8) and 5′-AGAGAGCTTCCACCAAG-3′ (SEQ ID NO:9); Rat Pdia4, 5′-[…]-3′(SEQ ID NO:22) and 5′-[…]-3′ (SEQ ID NO:23); Rat Blos1, 5′-[…]-3′ (SEQ ID NO:18) and 5′-TGTCCAGTTCGATGCTCCG-3′ (SEQ ID NO:19).

XBP1 mRNA splicing [5] = assay: XBP1 mRNA splicing in INS-1 cells conditionally overexpressing IRE1α (Dox); assay type: cell-based, rat; settings: 3, 10 μM for 1 hour, then Dox (1 μg/mL) for 4 hours
Method: as §1, §2
(§3) RNA was extracted using Trizol (Invitrogen), DNaseI treated, and cDNA products encompassing the intron amplified by QuantiTect Reverse Transcription Kit (Qiagen). sense Primer rXBP Forward (5′-[…]-3′ (SEQ ID NO:12)) and antisense primer rXBP Reverse (5′-[…]-3′ (SEQ ID NO:13)) were used. PCR fragments were digested by PstI, resolved on 3% agarose gels, stained with EtBr, and quantified by densitometry.
as §3, with “XBP1 splicing for FIGS. 33A-33F: RNA” for “RNA”, “(Invitrogen),” for “(Invitrogen), DNaseI treated, and”, “(Qiagen). Sense” for “(Qiagen). sense”, “rXBP splicing” for “rXBP”

Structure (SMILES)	IgM secretion (mouse splenocytes)	plasma cell (CD138+) differentiation (mouse splenocytes)	dimerization affinity of IRE1α* / formation of RNase active dimers (IRE1α* [1])	spliced XBP1 (XBP1 mRNA splicing [2])	IC50 (IRE1α* [3])	RIDD mRNA targets (Ins1, Ins2, Pdia4) [4]	% spliced XBP1 amplicons (XBP1 mRNA splicing [5])
Cc1ccc2c(NS(=O)(=O)c3ccccc3Cl)cccc2c1Oc1ncccc1-c1ccnc(N[C@H]2CCCNC2)n1 [KIRA8, reference compound]	reductions in both plasma cell differentiation and IgM secretion in a dose-dependent manner	dose-dependently inhibits B-cell differentiation into plasma cells; also recorded: reductions in both plasma cell differentiation and IgM secretion in a dose-dependent manner	unable to form RNase active dimers at any concentration tested	completely suppresses XBP1 splicing; also recorded: almost completely suppressed	–	–	–
Cc1cc(NS(=O)(=O)C2CC2)c2ccccc2c1Oc1ncccc1-c1ccnc(N[C@@H]2CNC[C@@H](F)C2)n1 [LBC-412, N-(4-((3-(2-(((3S,5S)-5-fluoropiperidin-3-yl)amino)pyrimidin-4-yl)pyridin-2-yl)oxy)-3-methylnaphthalen-1-yl) cyclopropane sulfonamide]	–	–	–	–	13 nM	block RIDD	do not suppress XBP mRNA splicing

— patent US11884649B2, “IRE1α inhibitors and uses thereof” (The Regents of the University of California, priority 2020, dated 2024)
